Assay results taken from patent US4137225A, “Novel chromogenic enzyme substrates” (Ab Kabi, priority 1975, dated 1979).
Values after ≈ are worked out from the molar mass of the structure shown. Structures can show the parent of a compound that is named as a salt. Where a SMILES comes first, the peptide text is derived from it. [ ]: non-standard residue; d: D form. The star is where a group is joined. pNA = O=[N+]([O-])c1ccc(N*)cc1; Pip = O=C(O)[C@@H]1CCCCN1; Bz = O=C(c1ccccc1)*

Columns and labels:
[1] = system: Kallikrein; test: Relative reaction rate of enzymatic hydrolysis of chromogenic substrates, kallikrein (p-nitroaniline release at 405 nm); assay type: biochemical; details: for Rel Reaction rates, Kal (Kallikrein): relative to reference substrate XVI
Text: (§1) The substrates prepared according to the examples above are used for determination of different enzymes according to the procedure outlined above.
(§2) The principle for the determination is based on the fact that the splitting product formed by enzymatic hydrolysis has a UV-spectrum which is essentially different from that of the substrate. Thus, e.g. all p-nitro anilide substrates according to the invention have absorption maxima around 310 nm with the molar extinction coefficient of about 12000. At 405 nm the absorption of these substrates has almost completely discontinued. p-Nitroaniline which has been split off from the substrate during the enzymatic hydrolysis has an absorption maximum at 380 nm and a molar extinction coefficient of 13200, which at 405 nm only has decreased to 9620. By spectrophotometric determination at 405 nm it is thus easy to follow the amount of p-nitroaniline formed which is proportional to the degree of the enzymatic hydrolysis which in its turn is determined by the active amount of enzyme.
(§3) In the table above the relative reaction rates for the different substrates are stated in relation to a reference substrate chosen for each enzyme. Symbols, reference substrates and their sensitivity for the respective enzymes are according to the following: […]

[2] = biological target: Plasmin (Homo sapiens, UniProt P00747); test: Relative reaction rate of enzymatic hydrolysis of chromogenic substrates, plasmin (p-nitroaniline release at 405 nm); assay type: biochemical; details: for Rel Reaction rates, Pl (Plasmin): relative to reference substrate XVIII
Text: as §1, §2, §3

[3] = system: Thrombin; test: Relative reaction rate of enzymatic hydrolysis of chromogenic substrates, thrombin (p-nitroaniline release at 405 nm); assay type: biochemical; details: for Rel Reaction rates, T (Thrombin): relative to reference substrate XIV
Text: as §1, §2, §3

[4] = Solubility in buffer; assay type: physicochemical; details: aqueous buffer; Buffer = Tris, pH 8.2, I 0.15
Text: | ^x Buffer = Tris, pH 8.2, I 0.15

[5] = system: Trypsin; test: Relative reaction rate of enzymatic hydrolysis of chromogenic substrates, trypsin (p-nitroaniline release at 405 nm); assay type: biochemical; details: for Rel Reaction rates, Try (Trypsin): relative to reference substrate XIII
Text: as §1, §2, §3

[6] = biological target: Urokinase (Homo sapiens, UniProt P00749); test: Relative reaction rate of enzymatic hydrolysis of chromogenic substrates, urokinase (p-nitroaniline release at 405 nm); assay type: biochemical; details: for Rel Reaction rates, UK (Urokinase): relative to reference substrate XIV
Text: as §1, §2, §3

Plasmin, sequence (P00747 97-810): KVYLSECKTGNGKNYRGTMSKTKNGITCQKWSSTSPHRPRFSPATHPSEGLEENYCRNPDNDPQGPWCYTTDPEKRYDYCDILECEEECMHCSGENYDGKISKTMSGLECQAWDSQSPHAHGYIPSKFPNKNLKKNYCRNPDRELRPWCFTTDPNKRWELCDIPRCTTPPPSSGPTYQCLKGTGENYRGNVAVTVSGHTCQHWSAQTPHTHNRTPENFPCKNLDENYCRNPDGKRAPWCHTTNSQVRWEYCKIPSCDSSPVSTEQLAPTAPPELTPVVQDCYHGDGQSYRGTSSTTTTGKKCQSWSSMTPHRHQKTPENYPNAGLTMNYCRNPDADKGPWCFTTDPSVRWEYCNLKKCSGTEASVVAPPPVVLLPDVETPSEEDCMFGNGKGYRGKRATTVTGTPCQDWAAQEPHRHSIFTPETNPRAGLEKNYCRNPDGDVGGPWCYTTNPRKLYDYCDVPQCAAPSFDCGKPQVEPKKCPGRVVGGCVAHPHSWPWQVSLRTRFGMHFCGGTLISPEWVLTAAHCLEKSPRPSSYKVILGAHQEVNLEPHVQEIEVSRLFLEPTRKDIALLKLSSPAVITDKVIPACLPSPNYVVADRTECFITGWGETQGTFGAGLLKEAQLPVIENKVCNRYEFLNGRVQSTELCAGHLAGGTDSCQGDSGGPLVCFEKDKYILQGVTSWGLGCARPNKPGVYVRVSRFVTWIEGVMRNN

SMILES | Rel Reaction rates, Kal (Kallikrein) [1] | Rel Reaction rates, Pl (Plasmin) [2] | Rel Reaction rates, T (Thrombin) [3] | solubility [4] [mg/mL] | Rel Reaction rates, Try (Trypsin) [5] | Rel Reaction rates, UK (Urokinase) [6] | further results
CC(C)C[C@H](NC(=O)[C@@H](N)C(C)C)C(=O)N[C@@H](CCCNC(=N)N)C(=O)Nc1ccc([N+](=O)[O-])cc1 [H-Val-Leu-Arg-pNA] (H-Val-Leu-Arg-pNA) | 50 | – | – | – | – | – | –
CC[C@H](C)[C@H](N)C(=O)N[C@@H](CC(C)C)C(=O)N[C@@H](CCCCN)C(=O)Nc1ccc([N+](=O)[O-])cc1 [H-Ile-Leu-Lys-pNA] (H-Ile-Leu-Lys-pNA) | – | 35 | – | – | – | – | –
CC(C)[C@H](NC(=O)c1ccccc1)C(=O)N1CCC[C@H]1C(=O)N[C@@H](CCCNC(=N)N)C(=O)Nc1ccc([N+](=O)[O-])cc1 [Bz-Val-Pro-Arg-pNA] (Bz-Val-Pro-Arg-pNA) | – | – | 6 | 0.3 (≈ 504 µM) | 60 | 15 | –
CC[C@H](C)[C@H](N)C(=O)N[C@@H](CC(C)C)C(=O)N[C@@H](CCCNC(=N)N)C(=O)Nc1ccc([N+](=O)[O-])cc1 [H-Ile-Leu-Arg-pNA] (H-Ile-Leu-Arg-pNA) | 20 | 10 | – | – | – | – | –
CC[C@H](C)[C@H](NC(=O)c1ccccc1)C(=O)N[C@@H](CC(C)C)C(=O)N[C@@H](CCCCN)C(=O)Nc1ccc([N+](=O)[O-])cc1 [Bz-Ile-Leu-Lys-pNA] (Bz-Ile-Leu-Lys-pNA) | – | 130 | – | 1 (≈ 1680 µM) | – | – | –
CC(C)C[C@H](NC(=O)[C@@H](NC(=O)c1ccccc1)C(C)C)C(=O)N[C@@H](CCCNC(=N)N)C(=O)Nc1ccc([N+](=O)[O-])cc1 [Bz-Val-Leu-Arg-pNA] (Bz-Val-Leu-Arg-pNA) | 100 | – | – | 0.2 (≈ 327 µM) | – | – | –
CC(C)C[C@H](NC(=O)[C@H](N)C(C)C)C(=O)N[C@@H](CCCNC(=N)N)C(=O)Nc1ccc([N+](=O)[O-])cc1 [XVI, H-D-Val-Leu-ARg-pNA . 2 HCl] (H-[dV]-Leu-Arg-pNA) | 100 | – | – | 600 | – | – | Sensitivity (stated amount of enzyme gives the activity 0.1 nkat) ([1]; Kallikrein, 0.1 nkat, ΔOD/min = 0.0254): 0.2 Be
CC(C)[C@@H](N)C(=O)N1CCC[C@H]1C(=O)N[C@@H](CCCNC(=N)N)C(=O)Nc1ccc([N+](=O)[O-])cc1 [XIII, H-D-Val-Pro-Arg-pNA . 2 HCl] (H-[dV]-Pro-Arg-pNA) | – | – | 80 | 100 | 100 | 95 | Sensitivity (stated amount of enzyme gives the activity 0.1 nkat) ([5]; Trypsin, 0.1 nkat, ΔOD/min = 0.0254): 0.03 µg (Novo)
CC[C@H](C)[C@H](NC(=O)c1ccccc1)C(=O)N[C@@H](CC(C)C)C(=O)N[C@@H](CCCNC(=N)N)C(=O)Nc1ccc([N+](=O)[O-])cc1 [Bz-Ile-Leu-Arg-pNA] (Bz-Ile-Leu-Arg-pNA) | 100 | 55 | – | 0.2 (≈ 320 µM) | – | – | –
CC[C@@H](C)[C@@H](N)C(=O)N[C@@H](CC(C)C)C(=O)N[C@@H](CCCCN)C(=O)Nc1ccc([N+](=O)[O-])cc1 [XVII, H-D-Ile-Leu-Lys-pNA . 2 HCl] (H-[dI]-Leu-Lys-pNA) | – | 100 | – | 20 | – | – | –
CC(C)C[C@H](NC(=O)[C@@H](NC(=O)c1ccccc1)C(C)C)C(=O)N[C@@H](CCCCN)C(=O)Nc1ccc([N+](=O)[O-])cc1 [Bz-Val-Leu-Lys-pNA] (Bz-Val-Leu-Lys-pNA) | – | 100 | – | 0.5 (≈ 858 µM) | – | – | –
CC(C)C[C@H](NC(=O)[C@@H](N)C(C)C)C(=O)N[C@@H](CCCCN)C(=O)Nc1ccc([N+](=O)[O-])cc1 [H-Val-Leu-Lys-pNA] (H-Val-Leu-Lys-pNA) | – | 25 | – | – | – | – | –
CC(C)[C@H](N)C(=O)N1CCCC[C@H]1C(=O)N[C@@H](CCCNC(=N)N)C(=O)Nc1ccc([N+](=O)[O-])cc1 [H-Val-Pip-Arg-pNA] (H-Val-[Pip]-Arg-pNA) | – | – | 4 | – | 35 | 45 | –
CC(C)[C@@H](N)C(=O)N1CCCC[C@H]1C(=O)N[C@@H](CCCNC(=N)N)C(=O)Nc1ccc([N+](=O)[O-])cc1 [XIV, H-D-Val-Pip-Arg-pNA . 2 HCl] (H-[dV]-[Pip]-Arg-pNA) | – | – | 100 | – | 70 | 100 | Sensitivity (stated amount of enzyme gives the activity 0.1 nkat) ([3]; Thrombin, 0.1 nkat, ΔOD/min = 0.0254): 0.06 INH; Sensitivity (stated amount of enzyme gives the activity 0.1 nkat) ([6]; Urokinase, 0.1 nkat, ΔOD/min = 0.0254): 40 Ploug E
CC(C)[C@H](N)C(=O)N1CCC[C@H]1C(=O)N[C@@H](CCCNC(=N)N)C(=O)Nc1ccc([N+](=O)[O-])cc1 [H-Val-Pro-Arg-pNA] (H-Val-Pro-Arg-pNA) | – | – | 6 | 40 (≈ 81500 µM) | 55 | 15 | –
CC[C@@H](C)[C@@H](N)C(=O)N[C@@H](CC(C)C)C(=O)N[C@@H](CCCNC(=N)N)C(=O)Nc1ccc([N+](=O)[O-])cc1 [XV, H-D-Ile-Leu-Arg-pNA . 2 HCl] (H-[dI]-Leu-Arg-pNA) | 100 | 75 | – | 4 | – | – | –
CC(C)[C@H](NC(=O)c1ccccc1)C(=O)N1CCCC[C@H]1C(=O)N[C@@H](CCCNC(=N)N)C(=O)Nc1ccc([N+](=O)[O-])cc1 [Bz-Val-Pip-Arg-pNA] (Bz-Val-[Pip]-Arg-pNA) | – | – | 4 | – | 45 | 30 | –
CC(C)C[C@H](NC(=O)[C@H](N)C(C)C)C(=O)N[C@@H](CCCCN)C(=O)Nc1ccc([N+](=O)[O-])cc1 [XVIII, H-D-Val-Leu-Lys-pNA . 2 HCl] (H-[dV]-Leu-Lys-pNA) | – | 100 | – | > 100 | – | – | Sensitivity (stated amount of enzyme gives the activity 0.1 nkat) ([2]; Plasmin, 0.1 nkat, ΔOD/min = 0.0254): 0.01 CU
